Legend:
[1] = system: cocaine-induced reinstatement; assay: Extinction/reinstatement paradigm, cocaine-induced reinstatement of lever pressing; format: in vivo; conditions: rats, cocaine 10 mg/kg IP
From the text: The extinction/reinstatement paradigm represents one of the most common paradigms used to screen for potential anticraving properties of novel pharmacotherapies. In the present experiments, rats were implanted with indwelling jugular catheters with an external port affixed slightly posterior to the rat's shoulder blades. Tubing is used to connect a syringe of cocaine to the external port of the indwelling catheter. Rats are then placed into standard operant chambers (Med Associates) and permitted to press a lever for an infusion of cocaine (0.5 mg/kg/200 microL, IV). Once behavior is stable, rats are permitted at least eleven 2-hr sessions to self-administer cocaine. Afterwards, the cocaine solution is replaced with saline in order to extinguish lever pressing. Once responding decreases to 10 or fewer lever presses/2 hr sessions for 3 out of 4 daily sessions, rats are tested for reinstatement (relapse). To do this, rats are placed into the operant chamber and vehicle or a cysteine/cystine prodrug (1-60 mg/kg, p.o.; N=2-12) is administered. Afterwards, rats then receive an injection of cocaine (10 mg/kg, IP). Responding is then assessed for 120 min.

[2] = system: PCP-evoked deficits in pre-pulse inhibition; assay: Prepulse inhibition of startle response, phencyclidine (PCP)-induced sensorimotor gating deficits; format: in vivo, rats; conditions: for sensorimotor gating (inhibition of startle response by pre-pulse) after PCP: rats, 30 mg/kg po, 60 min prior to PCP 1 mg/kg SC, pre-pulse 2-15 db above background, FIG. 2
[3] = system: extracellular glutamate in the prefrontal cortex; assay: Extracellular glutamate in the prefrontal cortex compared to baseline after prodrug administration; format: in vivo; conditions: rats; compound 7 30 mg/kg po (N=1) versus N-acetylcysteine 60 mg/kg IP (N=4); FIG. 1
Experimental: FIG. 1 is a bar graph depicting extracellular glutamate in the prefrontal cortex (compared to baseline) following administration of cysteine prodrugs N-acetylcysteine (60 mg/kg, IP; N=4) or compound 7 (30 mg/kg, po; N=1) in rats. […] Compound 7 was given to the animal orally, and thereby subjected to potential first-pass metabolism. Conversely, N-acetylcysteine was given IP in order to avoid extensive first pass metabolism that would occur following oral administration. Thus, compound 7 produced a larger relative increase in glutamate in rats as compared to NAC even though NAC was given in its preferred route of administration and at twice the concentration.

## CC(=O)N[C@@H](CS)C(=O)O [N-acetylcysteine]
[1]; 30 and 60 mg/kg IP, responding over 120 min, FIG. 8
  cocaine-induced reinstatement (responding): significant reduction in cocaine-induced reinstatement
[1]; given orally, FIG. 9
  cocaine-induced reinstatement (responding): less effective when given orally
[2]; infused directly into the rodent prefrontal cortex, 0-100 microM, FIG. 5
  restoration of inhibition of a startle response after PCP: significantly restored inhibition of a startle response at each concentration tested
[2]; intraperitoneal injection 60 min prior to testing, three prepulse stimulus intensities, FIG. 4
  restoration of sensorimotor gating after PCP: failed to significantly restore sensorimotor gating at any of the three prepulse stimulus intensities
[2]; oral administration 60 min prior to testing, FIG. 3
  attenuation of deficits in prepulse inhibition produced by phencyclidine: fails to significantly attenuate deficits in prepulse inhibition
[2]
  sensorimotor gating (inhibition of startle response by pre-pulse) after PCP: trend toward improved sensorimotor gating (p=0.1)

## CCOC1=NC(CS)C(OCC)=NC1 (centres unmarked) [Compound 5, (3,6-Diethoxy-2,5-dihydro-pyrazin-2-yl)-methanethiol]
[1]; 1 mg/kg p.o., FIG. 9
  cocaine-induced reinstatement (responding): sufficient to block cocaine-induced reinstatement
[2]; 1 mg/kg orally 60 min prior to testing, PCP 0-1.25 mg/kg SC, FIG. 6
  sensorimotor gating as assessed by inhibition of a startle response after PCP: significant increase in sensorimotor gating

## O=C1CNC(=O)[C@H](CSSC[C@H]2NC(=O)CNC2=O)N1 [Compound 7, Bis[2,5-Piperazinedione, 3-(mercaptomethyl)-]]
[3]
  peak increase in extracellular glutamate in the prefrontal cortex (compared to baseline): much larger peak increase in glutamate
[2]
  sensorimotor gating (inhibition of startle response by pre-pulse) after PCP: significant improvement in sensorimotor gating relative to PCP controls and rats receiving NAC+PCP

## CCOC1=NC(CSSCC2N=C(OCC)CN=C2OCC)C(OCC)=NC1 (centres unmarked) [Compound 6, Bis[(3,6-Diethoxy-2,5-dihydro-pyrazin-2-yl)-methanethiol]]
[2]; oral administration (0-1 mg/kg) 60 min prior to testing, prepulse 2, 6, 15 dB above background, FIG. 7
  restoration of sensorimotor gating after PCP: significantly restored sensorimotor gating at the highest prepulse intensity

Source: US8435997B2, “Cysteine prodrugs to treat schizophrenia and drug addiction” (Marquette University, priority 2007, dated 2013)
